≈ marks a conversion by molar mass, not a printed value. Some results are limits rather than exact numbers.

Assay [1] concerns M. tuberculosis DRM167-16x3 (KasA V123A). Type of assay: cell-based, Mycobacterium tuberculosis.
Assay [2] has as its system M. tuberculosis DRM167-16x6 (KasA I122S). The assay is classed as cell-based, Mycobacterium tuberculosis.
For assay [3], the system named is M. tuberculosis DRM167-32x11 (KasA G240S). Type of assay: cell-based, Mycobacterium tuberculosis.
Assay [4] deals with M. tuberculosis DRM167-32x2 (KasA P206T). The assay is classed as cell-based, Mycobacterium tuberculosis.
The subject of assay [5] is M. tuberculosis DRM167-8x2 (KasA A119T). The assay is classed as cell-based, Mycobacterium tuberculosis.
The subject of assay [6] is M. tuberculosis DRM167-8x6 (KasA M213L). Type of assay: cell-based, Mycobacterium tuberculosis.
The subject of assay [7] is M. tuberculosis DRM167-8x3 (KasA I145T). The assay is classed as cell-based, Mycobacterium tuberculosis.
A further assay deals with M. tuberculosis TDR116. Put plainly: microbe, parasite or virus in culture. The assay is classed as cell-based. Particulars: Mycobacterium tuberculosis.
A further assay relates to M. tuberculosis mc^24914. Put plainly: microbe, parasite or virus in culture. The assay is classed as cell-based. Particulars: Mycobacterium tuberculosis.
The next assay relates to M. tuberculosis TDR31. Put plainly: microbe, parasite or virus in culture. Type of assay: cell-based. Particulars: Mycobacterium tuberculosis.
Assay [8] has as its system mycolic acid biosynthesis in M. tuberculosis DRM167-32x2 (KasA P206T). Type of assay: cell-based, Mycobacterium tuberculosis.
In another assay the test system is M. tuberculosis TDR36. The experiment in a line: microbe, parasite or virus in culture. Particulars: Mycobacterium tuberculosis. Type of assay: cell-based.
Another assay deals with M. tuberculosis DRM5. The experiment in a line: microbe, parasite or virus in culture. Particulars: Mycobacterium tuberculosis. The assay is classed as cell-based.
The next assay has as its system M. tuberculosis DRM8.3. The experiment in a line: microbe, parasite or virus in culture. The assay is classed as cell-based. Particulars: Mycobacterium tuberculosis.

Turning to `O=[N+]([O-])c1cn2c(n1)OC[C@@H](OCc1ccc(OC(F)(F)F)cc1)C2` [PA824], the MIC in assay [1], in assay [2], in assay [3], in assay [4], in [5] and in assay [6] was 0.1 µM (≈ 0.0359 µg/mL) in each case. In addition, the MIC in [7] is given as 0.1 µM (≈ 0.0359 µg/mL).
As for `CC[C@@H](CO)NCCN[C@@H](CC)CO` [EMB, ethambutol], the MIC in assay [1], in assay [2], in [3], in assay [4], in assay [5] and in assay [6] was 1.56 µM (≈ 0.319 µg/mL) each time. Moreover, the MIC in assay [7] was found to be 1.56 µM (≈ 0.319 µg/mL).
As for `COc1nc2ccc(Br)cc2cc1[C@@H](c1ccccc1)[C@@](O)(CCN(C)C)c1cccc2ccccc12` [BDQ, bedaquiline], the MIC came out at 0.5 µM (≈ 0.278 µg/mL) in assay [1]; 0.5 µM (≈ 0.278 µg/mL) in assay [2]; 0.25 µM (≈ 0.139 µg/mL) in assay [3]; 0.12 µM (≈ 0.0667 µg/mL) in [4]; 0.5 µM (≈ 0.278 µg/mL) in assay [5]; 0.5 µM (≈ 0.278 µg/mL) in assay [6]. This molecule also showed an MIC in assay [7] of 1 µM (≈ 0.556 µg/mL).
Consider `CC(C)=CCC/C(C)=C/CNCCNC1C2CC3CC(C2)CC1C3` (centres unmarked) [SQ109], for which the MIC in assay [1] is reported as 0.8 µM (≈ 0.264 µg/mL); in assay [2], 0.4 µM (≈ 0.132 µg/mL); in assay [3], 0.4 µM (≈ 0.132 µg/mL); in [4], 0.4 µM (≈ 0.132 µg/mL); in assay [5], 0.8 µM (≈ 0.264 µg/mL); in assay [6] it was 0.4 µM (≈ 0.132 µg/mL). The molecule further displayed an MIC in assay [7] of 0.8 µM (≈ 0.264 µg/mL).
Take `CCCCS(=O)(=O)Nc1ccc2cnn(C)c2c1` [DG167, N-(1-Methyl-1H-indazol-6-yl)butane-1-sulfonamide]: the MIC was 0.2 µM (≈ 0.0535 µg/mL) against M. tuberculosis TDR116; 1.56 µM (≈ 0.417 µg/mL) in assay [1]; 50 µM (≈ 13.4 µg/mL) in assay [2]; 0.78 µM (≈ 0.209 µg/mL) in the assay on M. tuberculosis mc^24914; 0.2 µM (≈ 0.0535 µg/mL) with M. tuberculosis TDR31; 100 µM (≈ 26.7 µg/mL) in [3]. Further, the MIC is recorded as over 100 µM in assay [4], 50 µM (≈ 13.4 µg/mL) in assay [5], 3.12 µM (≈ 0.834 µg/mL) in [6] and 6.25 µM (≈ 1.67 µg/mL) in assay [7]. Moreover, the “frequency of resistant mutants” value with M. tuberculosis is reported as 1 × 10^−7. Also, the “inhibition of mycolic acid biosynthesis” value in assay [8] is reported as “resistant to DG167-mediated inhibition of mycolic acid biosynthesis”.
As for `CO[C@H]1/C=C/O[C@@]2(C)Oc3c(C)c(O)c4c(O)c(c(/C=N/N5CCN(C)CC5)c(O)c4c3C2=O)NC(=O)/C(C)=C\C=C\[C@H](C)[C@H](O)[C@@H](C)[C@@H](O)[C@@H](C)[C@H](OC(C)=O)[C@@H]1C` [RIF, rifampin], the MIC in [1], in assay [2], in [3], in assay [4], in [5] and in assay [6] was 0.001 µM (≈ 0.000823 µg/mL) each time. This molecule also gave an MIC in [7] of 0.002 µM (≈ 0.00165 µg/mL).
For the molecule `NNC(=O)c1ccncc1` [INH, isoniazid], the MIC in the assay with M. tuberculosis TDR116 was over 12 µM; in assay [1] it was 0.38 µM (≈ 0.0521 µg/mL); in [2], 0.19 µM (≈ 0.0261 µg/mL); against M. tuberculosis mc^24914, 1.6 µM (≈ 0.219 µg/mL); against M. tuberculosis TDR31 it was over 12 µM; in [3], 0.19 µM (≈ 0.0261 µg/mL). Further, the MIC was over 12 µM with M. tuberculosis TDR36; 0.19 µM (≈ 0.0261 µg/mL) in assay [4]; 0.4 µM (≈ 0.0549 µg/mL) in the assay with M. tuberculosis DRM5; 0.38 µM (≈ 0.0521 µg/mL) in assay [5]; 0.38 µM (≈ 0.0521 µg/mL) in assay [6]; 0.4 µM (≈ 0.0549 µg/mL) against M. tuberculosis DRM8.3. The molecule further displayed an MIC in [7] of 0.38 µM (≈ 0.0521 µg/mL).
As for `CCc1cc(C(N)=S)ccn1` [ETH, ethionamide], the MIC in assay [1] came to 25 µM (≈ 4.16 µg/mL); in [2], 12.5 µM (≈ 2.08 µg/mL); in assay [3], 12.5 µM (≈ 2.08 µg/mL); in assay [4] it was 12.5 µM (≈ 2.08 µg/mL); in assay [5] it was 12.5 µM (≈ 2.08 µg/mL); in assay [6], 25 µM (≈ 4.16 µg/mL). This molecule also returned an MIC in assay [7] of 25 µM (≈ 4.16 µg/mL).
For `COc1c(N2C[C@@H]3CCCN[C@@H]3C2)c(F)cc2c(=O)c(C(=O)O)cn(C3CC3)c12` [Moxi, moxifloxacin], the MIC in [1], in [2], in assay [3], in assay [4], in assay [5] and in assay [6] was 0.03 µM (≈ 0.012 µg/mL) in each case. The MIC in assay [7] stood at 0.03 µM (≈ 0.012 µg/mL).

Values taken from PMC6299220 (mBio, 2018).
